# Experiments:
# Type in all cases: in vivo
# Wheat [1] = test: Pre-emergence test, wheat; details: three weeks
# Procedure: (§1) Solvent: 5 parts by weight acetone
# (§2) 1 part by weight benzyloxypolyglycol ether
# (§3) To produce a suitable preparation of the particular active compound, 1 part by weight of such active compound is mixed with the stated amount of solvent, the stated amount of emulsifier is then added and the resulting concentrate is thereafter diluted with water to the desired final concentration.
# (§4) Seeds of the test plants are sown in normal soil and, after 24 hours, watered with the preparation of the given active compound. It is expedient to keep constant the amount of water per unit area. The concentration of the particular active compound in the preparation is of no importance, only the amount of active compound applied per unit area being decisive. After three weeks, the degree of damage to the test plants is determined and characterized by the values 0-5, which have the following meaning:
# (§5) The procedure of Example 1 is repeated, and the particular active compounds tested, the amounts applied, and the results obtained can be seen from the following Table 1D: […]
# Cotton = test: Pre-emergence test, cotton; details: three weeks
# Procedure: as §1, §2, §3, §4, §5
# Oats [2] = test: Pre-emergence test, oats; details: three weeks
# Procedure: as §1, §2, §3, §4, §5
# Echinochloa [3] = test: Post-emergence test, Echinochloa; details: three weeks
# Procedure: as §1, §2, §3
# (§6) Test plants which have a height of about 5--15 cm. are sprayed with the preparation of the given active compound until just dew moist. After three weeks, the degree of damage to the plants is determined and characterized by the values 0-5, which have the following meaning:
# (§7) The procedure of Example 2 is repeated, and the particular active compounds tested, and amounts applied, and the results obtained can be seen from the following Table 2E: […]
# Wheat [4] = test: Post-emergence test, wheat; details: three weeks
# Procedure: as §1, §2, §3, §6, §7
# Stellaria = test: Post-emergence test, Stellaria; details: three weeks
# Procedure: as §1, §2, §3, §6, §7
# Oats [5] = test: Post-emergence test, oats; details: three weeks
# Procedure: as §1, §2, §3, §6, §7
# Echinochloa [6] = test: Pre-emergence test, Echinochloa; details: 1.25 kg/hectare, three weeks
# Procedure: as §1, §2, §3, §4, §5
structure (smiles),measurement,setting,value
"CCCC=Nn1c(SC)nnc(C(C)C)c1=O [Compound 217, 3-methylthio-4-(n-butylidene-amino)-6-isopropyl-1,2,4-triazine-5-one]","degree of damage, Wheat",Wheat [1]; 1.25 kg/hectare,4-5
"CCSc1nnc(C(C)C)c(=O)n1N [Compound 148, 3-ethylthio-4-amino-6-isopropyl-1,2,4-triazine-5-one]","degree of damage, Cotton",Cotton; 2.5 kg/hectare,4-5
same,"degree of damage, Cotton",Cotton; 5 kg/hectare,4-5
same,"degree of damage, Oats",Oats [2]; 1.25 kg/hectare,4-5
same,"degree of damage, Oats",Oats [2]; 2.5 kg/hectare,4-5
same,"degree of damage, Oats",Oats [2]; 5 kg/hectare,4-5
same,"degree of damage, Wheat",Wheat [1]; 1.25 kg/hectare,3-4
same,"degree of damage, Echinochloa",Echinochloa [3]; 0.6 Kg/hectare,4-5
same,"degree of damage, Echinochloa",Echinochloa [3]; 1.2 Kg/hectare,4-5
same,"degree of damage, Wheat",Wheat [4]; 2.4 Kg/hectare,4-5
same,"degree of damage, Stellaria",Stellaria; 2.4 Kg/hectare,4-5
"CSc1nnc(CC(C)C)c(=O)n1N [Compound 11, 3-methylthio-4-amino-6-isobutyl-1,2,4-triazine-5-one]","degree of damage, Wheat",Wheat [4]; 2.4 Kg/hectare,4-5
"CSc1nnc(CCC(C)C)c(=O)n1N [Compound 23, 3-methylthio-4-amino-6-isopentyl-1,2,4-triazine-5-one]","degree of damage, Wheat",Wheat [4]; 2.4 Kg/hectare,4-5
"CCc1nnc(SC)n(N)c1=O [Compound 22, 3-methylthio-4-amino-6-ethyl-1,2,4-triazine-5-one]","degree of damage, Wheat",Wheat [1]; 5 kg/hectare,4-5
same,"degree of damage, Oats",Oats [5]; 1.2 Kg/hectare,4-5
same,"degree of damage, Oats",Oats [5]; 2.4 Kg/hectare,4-5
"CSc1nnc(C(C)(C)C)c(=O)n1N=C(C)C [Compound 220, 3-methylthio-4-(prop-2'-ylidene-amino)-6-tert.-butyl-1,2,4-triazine-5-one]","degree of damage, Wheat",Wheat [1]; 1.25 kg/hectare,4-5
"CN(C)c1nnc(-c2ccccc2)c(=O)n1N [Compound 16, 3-dimethylamino-4-amino-6-phenyl-1,2,4-triazine-5-one]","degree of damage, Cotton",Cotton; 2.5 kg/hectare,4-5
same,"degree of damage, Wheat",Wheat [1]; 1.25 kg/hectare,4-5
same,"degree of damage, Wheat",Wheat [1]; 2.5 kg/hectare,4-5
same,"degree of damage, Wheat",Wheat [1]; 5 kg/hectare,4-5
same,"degree of damage, Echinochloa",Echinochloa [6],4-5
same,"degree of damage, Wheat",Wheat [4]; 1.2 Kg/hectare,4-5
"CCCCNc1nnc(C2CCCCC2)c(=O)n1N [Compound 182, 3-n-butylamino-4-amino-6-cyclohexyl-1,2,4-triazine-5-one]","degree of damage, Oats",Oats [2]; 40 Kg/hectare,4-5
same,"degree of damage, Wheat",Wheat [1]; 40 Kg/hectare,4-5
same,"degree of damage, Echinochloa",Echinochloa [3]; 10 Kg/hectare,4-5
"CCCc1nnc(SC)n(N)c1=O [Compound 153, 3-methylthio-4-amino-6-n-propyl-1,2,4-triazine-5-one]","degree of damage, Cotton",Cotton; 1.25 kg/hectare,4-5
same,"degree of damage, Oats",Oats [2]; 1.25 kg/hectare,4-5
same,"degree of damage, Oats",Oats [2]; 2.5 kg/hectare,4-5
same,"degree of damage, Oats",Oats [5]; 2.4 Kg/hectare,4-5
"CSc1nnc(C(C)(C)C)c(=O)n1N=CC(C)C [Compound 215, 3-methylthio-4-(isobutylidene-amino)-6-tert.-butyl-1,2,4-triazine-5-one]","degree of damage, Wheat",Wheat [4]; 1.2 Kg/hectare,4-5
"CSc1nnc(C(C)C)c(=O)n1N=Cc1ccccc1C [Compound 206, 3-methylthio-4-(2'-methyl-benzylidene-amino)-6-isopropyl-1,2,4-triazine-5-one]","degree of damage, Cotton",Cotton; 1.25 kg/hectare,4-5
same,"degree of damage, Wheat",Wheat [4]; 1.2 Kg/hectare,3-4
same,"degree of damage, Stellaria",Stellaria; 0.6 Kg/hectare,4-5
same,"degree of damage, Oats",Oats [5]; 2.4 Kg/hectare,4-5
"CNc1nnc(C(C)(C)C)c(=O)n1N [Compound 175, 3-methylamino-4-amino-6-tert.-butyl-1,2,4-triazine-5-one]","degree of damage, Echinochloa",Echinochloa [3]; 0.6 Kg/hectare,4-5
same,"degree of damage, Echinochloa",Echinochloa [3]; 1.2 Kg/hectare,4-5
same,"degree of damage, Wheat",Wheat [4]; 2.4 Kg/hectare,4-5
same,"degree of damage, Oats",Oats [5]; 0.6 Kg/hectare,4-5
same,"degree of damage, Oats",Oats [5]; 1.2 Kg/hectare,4-5
"CNc1nnc(C(C)(C)C)c(=O)n1N=C(C)C [Compound 232, 3-methylamino-4-(prop-2'-ylidene-amino)-6-tert.-butyl-1,2,4-triazine-5-one]","degree of damage, Oats",Oats [2]; 1.25 kg/hectare,4-5
same,"degree of damage, Wheat",Wheat [4]; 1.2 Kg/hectare,4-5
"CCC=Nn1c(SC)nnc(C(C)C)c1=O [Compound 216, 3-methylthio-4-(n-propylidene-amino)-6-isopropyl-1,2,4-triazine-5-one]","degree of damage, Wheat",Wheat [1]; 1.25 kg/hectare,4-5
"CSc1nnc(C(C)(C)C)c(=O)n1NC(O)C(Cl)(Cl)Cl (stereo not drawn) [Compound 192, 3-methylthio-4-(β-trichloro-α-hydroxy-ethyl)-amino-6-tert.-butyl-1,2,4-triazine-5-one]","degree of damage, Cotton",Cotton; 1.25 kg/hectare,4-5
same,"degree of damage, Cotton",Cotton; 2.5 kg/hectare,4-5
same,"degree of damage, Oats",Oats [2]; 1.25 kg/hectare,4-5
same,"degree of damage, Oats",Oats [2]; 2.5 kg/hectare,4-5
same,"degree of damage, Oats",Oats [5]; 2.4 Kg/hectare,4-5
"CSc1nnc(C2CCCCC2)c(=O)n1N=CC1CCCCC1 [Compound 228, 3-methylthio-4-(hexahydrobenzylidene-amino)-6-cyclohexyl-1,2,4-triazine-5-one]","degree of damage, Oats",Oats [2]; 5 kg/hectare,4-5
same,"degree of damage, Wheat",Wheat [1]; 5 kg/hectare,4-5
same,"degree of damage, Echinochloa",Echinochloa [3]; 0.6 Kg/hectare,4-5
same,"degree of damage, Wheat",Wheat [4]; 0.6 Kg/hectare,4-5
same,"degree of damage, Wheat",Wheat [4]; 1.2 Kg/hectare,4-5
same,"degree of damage, Oats",Oats [5]; 1.2 Kg/hectare,4-5
"CSc1nnc(C(C)C)c(=O)n1N=CC1CCCCC1 [Compound 197, 3-methylthio-4-(hexahydrobenzylidene-amino)-6-isopropyl-1,2,4-triazine-5-one]","degree of damage, Wheat",Wheat [1]; 1.25 kg/hectare,4-5
same,"degree of damage, Echinochloa",Echinochloa [3]; 1.2 Kg/hectare,4-5
same,"degree of damage, Wheat",Wheat [4]; 1.2 Kg/hectare,4-5
"CSc1nnc(C(C)C)c(=O)n1N=Cc1ccc(Cl)cc1 [Compound 201, 3-methylthio-4-(4'-chloro-benzylidene-amino)-6-isopropyl-1,2,4-triazine-5-one]","degree of damage, Wheat",Wheat [1]; 1.25 kg/hectare,4-5
same,"degree of damage, Echinochloa",Echinochloa [3]; 1.2 Kg/hectare,4-5
same,"degree of damage, Stellaria",Stellaria; 1.2 Kg/hectare,4-5
"CSc1nnc(C(C)C)c(=O)n1N=Cc1ccccc1 [Compound 198, 3-methylthio-4-(benzylidene-amino)-6-isopropyl-1,2,4-trizaine-5-one]","degree of damage, Wheat",Wheat [1]; 1.25 kg/hectare,4-5
same,"degree of damage, Stellaria",Stellaria; 0.6 Kg/hectare,4-5
same,"degree of damage, Oats",Oats [5]; 0.6 Kg/hectare,3-4
same,"degree of damage, Oats",Oats [5]; 2.4 Kg/hectare,4-5
"C#CCSc1nnc(C(C)C)c(=O)n1N [Compound 158, 3-propargylthio-4-amino-6-isopropyl-1,2,4-triazine-5-one]","degree of damage, Stellaria",Stellaria; 1.2 Kg/hectare,4-5
"CSc1nnc(C(C)C)c(=O)n1N=Cc1ccc([N+](=O)[O-])cc1 [Compound 210, 3-methylthio-4-(4'-nitro-benzylidene-amino)-6-isopropyl-1,2,4-triazine-5-one]","degree of damage, Cotton",Cotton; 2.5 kg/hectare,4-5
same,"degree of damage, Cotton",Cotton; 5 kg/hectare,4-5
same,"degree of damage, Oats",Oats [2]; 2.5 kg/hectare,4-5
same,"degree of damage, Oats",Oats [2]; 5 kg/hectare,4-5
"CSc1nnc(C(C)C)c(=O)n1N=Cc1ccco1 [Compound 203, 3-methylthio-4-(furfur-2'-ylidene-amino)-6-isopropyl-1,2,4-triazine-5-one]","degree of damage, Cotton",Cotton; 1.25 kg/hectare,4-5
same,"degree of damage, Wheat",Wheat [4]; 1.2 Kg/hectare,4-5
same,"degree of damage, Stellaria",Stellaria; 2.4 Kg/hectare,4-5
"CSc1nnc(C(C)C)c(=O)n1N=C1CCCCC1 [Compound 204, 3-methylthio-4-(cyclohexylidene-amino)-6-isopropyl-1,2,4-triazine-5-one]","degree of damage, Wheat",Wheat [1]; 1.25 kg/hectare,4-5
same,"degree of damage, Stellaria",Stellaria; 0.6 Kg/hectare,4-5
"CNn1c(OC)nnc(-c2ccccc2)c1=O [Compound 234, 3-methoxy-4-methylamino-6-phenyl-1,2,4-triazine-5-one]","degree of damage, Oats",Oats [2]; 5 kg/hectare,4-5
"CCNc1nnc(C(C)(C)C)c(=O)n1N [Compound 176, 3-ethylamino-4-amino-6-tert.-butyl-1,2,4-triazine-5-one]","degree of damage, Echinochloa",Echinochloa [3]; 2.4 Kg/hectare,4-5
same,"degree of damage, Stellaria",Stellaria; 0.6 Kg/hectare,4-5
"CCCNc1nnc(C(C)C)c(=O)n1N [Compound 178, 3-n-propylamino-4-amino-6-isopropyl-1,2,4-triazine-5-one]","degree of damage, Wheat",Wheat [1]; 5 kg/hectare,2-3
"CSc1nnc(C2CCCCC2)c(=O)n1N=C(C)C [Compound 224, 3-methylthio-4-(prop-2'-ylidene-amino)-6-cyclohexyl-1,2,4-triazine-5-one]","degree of damage, Wheat",Wheat [1]; 1.25 kg/hectare,4-5
same,"degree of damage, Wheat",Wheat [4]; 1.2 Kg/hectare,4-5
same,"degree of damage, Wheat",Wheat [4]; 2.4 Kg/hectare,4-5
same,"degree of damage, Oats",Oats [5]; 1.2 Kg/hectare,4-5
"CCNc1nnc(-c2ccccc2)c(=O)n1N [Compound 7, 3-ethylamino-4-amino-6-phenyl-1,2,4-triazine-5-one]","degree of damage, Oats",Oats [2]; 2.5 kg/hectare,4-5
